Data as given in patent US20140200134A1, “Anthranilamide Compounds and their use as Pesticides” (BASF SE, priority 2011, published 2014).

Tests used:
Format in all cases: in vivo
[1] = system: Cowpea aphid (aphis craccivora); assay: Cowpea aphid spray test on potted cowpea plants; settings: sprayed cowpea plants, assessed after 72 hours, read-out: mortality in comparison with untreated controls
Protocol: B.1 Cowpea aphid (aphis craccivora)
The active compound was dissolved at the desired concentration in a mixture of 1:1 (vol:vol) distilled water:acetone. Surfactant (Alkamuls® EL 620) was added at a rate of 0.1% (vol/vol). The test solution was prepared at the day of use.
Potted cowpea plants were colonized with approximately 50-100 aphids of various stages by manually transferring a leaf tissue cut from infested plant 24 hours before application. Plants were sprayed after the pest population had been recorded. Treated plants were maintained on light carts at about 28° C. Percent mortality was assessed after 72 hours.

[2] = system: Diamond back moth (plutella xylostella); assay: Diamond back moth cabbage leaf-dip test; settings: dipped cabbage leaves, 3rd instar larvae, 72 hours after treatment, read-out: mortality in comparison with untreated controls
Protocol: B.2 Diamond back moth (plutella xylostella)
The active compound was dissolved at the desired concentration in a mixture of 1:1 (vol:vol) distilled water:acteone. Surfactant (Alkamuls® EL 620) was added at a rate of 0.1% (vol/vol). The test solution was prepared at the day of use.
Leaves of cabbage were dipped in test solution and air-dried. Treated leaves were placed in petri dishes lined with moist filter paper and inoculated with ten 3rd instar larvae. Mortality was recorded 72 hours after treatment. Feeding damages were also recorded using a scale of 0-100%.

[3] = system: Vetch aphid (Megoura viciae); assay: Vetch aphid broad bean leaf disk microtiter test; settings: foliar, 120 h, sprayed broad bean leaf disks, adult aphids, 5 days, read-out: mortality in comparison with untreated controls
Protocol: B.6 Vetch aphid (Megoura viciae)
For evaluating control of vetch aphid (Megoura viciae) through contact or systemic means the test unit consisted of 24-well-microtiter plates containing broad bean leaf disks. The compounds were formulated using a solution containing 75% v/v water and 25% v/v DMSO. Different concentrations of formulated compounds were sprayed onto the leaf disks at 2.5 μl, using a custom built micro atomizer, at two replications.
After application, the leaf disks were air-dried and 5-8 adult aphids placed on the leaf disks inside the microtiter plate wells. The aphids were then allowed to suck on the treated leaf disks and incubated at about 23±1° C. and about 50±5% relative humidity for 5 days. Aphid mortality and fecundity was then visually assessed.

[4] = system: Tobacco budworm (Heliothis virescens); assay: Tobacco budworm foliar spray test on cotton plants; settings: 96 h, sprayed cotton plants, larvae, 4 days after treatment, read-out: mortality in comparison with untreated controls
Protocol: B.7 Tobacco budworm (Heliothis virescens) I
(§1) The active compounds were formulated in cyclohexanone as a 10,000 ppm solution supplied in tubes. The tubes were inserted into an automated electrostatic sprayer equipped with an atomizing nozzle and they served as stock solutions for which lower dilutions were made in 50% acetone:50% water (v/v). A nonionic surfactant (Kinetic®) was included in the solution at a volume of 0.01% (v/v).
Cotton plants were grown 2 plants to a pot and selected for treatment at the cotyledon stage. Test solutions were sprayed onto the foliage by an automated electrostatic plant sprayer equipped with an atomizing spray nozzle. The plants were dried in the sprayer fume hood and then removed from the sprayer. Each pot was placed into perforated plastic bags with a zip closure. About 10 to 11 budworm larvae were placed into the bag and the bags zipped closed. Test plants were maintained in a growth room at about 25° C. and about 20-40% relative humidity for 4 days, avoiding direct exposure to fluorescent light (24 hour photoperiod) to prevent trapping of heat inside the bags. Mortality and reduced feeding were assessed 4 days after treatment, compared to untreated control plants.

[5] = system: Orchid thrips (dichromothrips corbetti); assay: Orchid thrips floral-immersion test; settings: dipped orchid flowers, adult thrips, 72 hours after treatment, read-out: mortality in comparison with untreated controls
Protocol: B.4 Orchid thrips (dichromothrips corbetti)
Dichromothrips corbetti adults used for bioassay were obtained from a colony maintained continuously under laboratory conditions. For testing purposes, the test compound was diluted in a 1:1 mixture of acetone:water (vol:vol), plus 0.01% vol/vol Alkamuls® EL 620 surfactant.
Thrips potency of each compound was evaluated by using a floral-immersion technique. Plastic petri dishes were used as test arenas. All petals of individual, intact orchid flowers were dipped into treatment solution and allowed to dry. Treated flowers were placed into individual petri dishes along with about 20 adult thrips. The petri dishes were then covered with lids. All test arenas were held under continuous light and a temperature of about 28° ° C. for duration of the assay. After 3 days, the numbers of live thrips were counted on each flower, and along inner walls of each petri dish. The percent mortality was recorded 72 hours after treatment.

[6] = system: Mediterranean fruitfly (Ceratitis capitata); assay: Mediterranean fruitfly microtiter plate diet test; settings: 120 h, sprayed onto insect diet, egg and larval mortality after 5 days, read-out: mortality in comparison with untreated controls
Protocol: B.3 Mediterranean fruitfly (Ceratitis capitata)
For evaluating control of Mediterranean fruitfly (CeratitiS capitate) the test unit consisted of microtiter plates containing an insect diet and 50-80 C. capitata eggs.
(§2) The compounds were formulated using a solution containing 75% v/v water and 25% v/v DMSO. Different concentrations of formulated compounds were sprayed onto the insect diet at 5 μl, using a custom built micro atomizer, at two replications.
After application, microtiter plates were incubated at about 28±1° C. and about 80±5% relative humidity for 5 days. Egg and larval mortality was then visually assessed.

[7] = system: Green Peach Aphid (Myzus persicae); assay: Green peach aphid spray test on bell pepper plants; settings: 120 h, sprayed infested bell pepper plants, after 5 days, read-out: mortality in comparison with untreated controls
Description: B.9 Green Peach Aphid (Myzus persicae)
as §1
Bell pepper plants at the first true-leaf stage were infested prior to treatment by placing heavily infested leaves from the main colony on top of the treatment plants. Aphids were allowed to transfer overnight to accomplish an infestation of 30-50 aphids per plant and the host leaves were removed. The infested plants were then sprayed by an automated electrostatic plant sprayer equipped with an atomizing spray nozzle. The plants were dried in the sprayer fume hood, removed, and then maintained in a growth room under fluorescent lighting in a 24-hr photoperiod at about 25° C. and about 20-40% relative humidity. Aphid mortality on the treated plants, relative to mortality on untreated control plants, was determined after 5 days.

[8] = system: Boll weevil (Anthonomus grandis); assay: Boll weevil microtiter plate diet test; settings: 120 h, sprayed onto insect diet, egg and larval mortality after 5 days, read-out: mortality in comparison with untreated controls
Protocol: B.8 Boll weevil (Anthonomus grandis)
For evaluating control of boll weevil (Anthonomus grandis) the test unit consisted of 96-well-microtiter plates containing an insect diet and 20-30 A. grandis eggs.
as §2
After application, microtiter plates were incubated at about 25±1° C. and about 75±5% relative humidity for 5 days. Egg and larval mortality was then visually assessed.

CNC(=O)c1cc(/C=N/OC)cc(C)c1NC(=O)c1ccc(C(F)(F)F)cc1-c1ncccc1Cl [Compound 1-1, 2-[[2-(3-chloro-2-pyridyl)-4-(trifluoromethyl)benzoyl]amino]-5-[(E)-methoxyiminomethyl]-N,3-dimethyl-benzamide]
> 75%: mortality at 500 ppm [1] | mortality at 500 ppm [2] | mortality at 2500 ppm [3] | mortality at 2500 ppm [4] | mortality at 500 ppm [5] | mortality at 2500 ppm [6] | mortality at 2500 ppm [7] | mortality at 2500 ppm [8]

CNC(=O)c1cc(-n2cncn2)cc(C)c1NC(=O)c1ccc(C(F)(F)F)cc1-c1ncccc1Cl [Compound 1-2, 2-[[2-(3-chloro-2-pyridyl)-4-(trifluoromethyl)benzoyl]amino]N,3-dimethyl-5-(1,2,4-triazol-1-yl)benzamide]
> 75%: mortality at 500 ppm [1] | mortality at 2500 ppm [3] | mortality at 2500 ppm [4] | mortality at 500 ppm [5] | mortality at 2500 ppm [6] | mortality at 2500 ppm [7] | mortality at 2500 ppm [8]

CNC(=O)c1cc(/C=N/NC(N)=O)cc(C)c1NC(=O)c1ccc(C(F)(F)F)cc1-c1ncccc1Cl [Compound 1-3, 5-[(E)-(carbamoylhydrazono)methyl]-2-[[2-(3-chloro-2-pyridyl)-4-(trifluoromethyl)benzoyl]amino]-N,3-dimethyl-benzamide]
> 75%: mortality at 500 ppm [1] | mortality at 2500 ppm [4] | mortality at 2500 ppm [7]
